# Measurements as given in ChEMBL document CHEMBL1201862, “PubChem BioAssay data set” (2004).
#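 A five-concentration, 48-hour dose response in 96-well plates underlies each endpoint, interpolated linearly between surrounding concentrations. At the GI50, growth is halved.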 The source made the active and inactive calls. Cut-off read from the data, not from the text of the source: active = GI50 up to about 1.1 µM and inactive = higher.
# Tests used:
# Assay in all cases: inhibition of tumour cell growth, NCI panel, 48 h
# HCT-116 = test system: HCT-116
# SR = test system: SR
# M19-MEL = test system: M19-MEL
# SF-268 = test system: SF-268
# U-251 = test system: U-251
# LXFL 529 = test system: LXFL 529
# DLD-1 = test system: DLD-1
# NCI-H522 = test system: NCI-H522
# HL-60 = test system: HL-60
# SK-MEL-28 = test system: SK-MEL-28
# SF-295 = test system: SF-295
# OVCAR-8 = test system: OVCAR-8
# M14 = test system: M14
# SNB-78 = test system: SNB-78
# NCI-H226 = test system: NCI-H226
# SN12C = test system: SN12C
# OVCAR-5 = test system: OVCAR-5
# 786-0 = test system: 786-0
# XF498 = test system: XF498
# DMS-273 = test system: DMS-273
# TK-10 = test system: TK-10
# SF-539 = test system: SF-539
# EKVX = test system: EKVX
# SK-MEL-5 = test system: SK-MEL-5
# SW-620 = test system: SW-620
# SNB-19 = test system: SNB-19
# A549 = test system: A549
# HCT-15 = test system: HCT-15
# RXF 393 = test system: RXF 393
# HT-29 = test system: HT-29
# RPMI-8226 = test system: RPMI-8226
# K562 = test system: K562
# OVCAR-3 = test system: OVCAR-3
# CAKI-1 = test system: CAKI-1
# HOP-92 = test system: HOP-92
# UACC-62 = test system: UACC-62
# UACC-257 = test system: UACC-257
# A498 = test system: A498
# NCI-H460 = test system: NCI-H460
# UO-31 = test system: UO-31
# HCC 2998 = test system: HCC 2998
# SK-OV-3 = test system: SK-OV-3
# MOLT-4 = test system: MOLT-4
# IGROV-1 = test system: IGROV-1
# ACHN = test system: ACHN
# KM12 = test system: KM12
# OVCAR-4 = test system: OVCAR-4
# CCRF-CEM = test system: CCRF-CEM
# SNB-75 = test system: SNB-75
# KM-20L2 = test system: KM-20L2
# Malme-3M = test system: Malme-3M
# SK-MEL-2 = test system: SK-MEL-2
# COLO 205 = test system: COLO 205
# HOP-62 = test system: HOP-62
# NCI-H23 = test system: NCI-H23
# LOX IMVI = test system: LOX IMVI
# HOP-18 = test system: HOP-18
# DMS-114 = test system: DMS-114
smiles,measurement,setting,value
CC1=NN(c2ccccc2)C(=O)C12[C@H](c1ccccc1)C2(C#N)C#N (stereo partly drawn),GI50,HCT-116,3.21 µM (inactive)
same,GI50,SR,1.91 µM (inactive)
same,GI50,M19-MEL,2.51 µM (inactive)
same,GI50,SF-268,7.26 µM (inactive)
same,GI50,U-251,15.4 µM (inactive)
same,GI50,LXFL 529,1.96 µM (inactive)
same,GI50,DLD-1,2 µM (inactive)
same,GI50,NCI-H522,2.88 µM (inactive)
same,GI50,HL-60,2.55 µM (inactive)
same,GI50,SK-MEL-28,3.48 µM (inactive)
same,GI50,SF-295,12.9 µM (inactive)
same,GI50,OVCAR-8,2.84 µM (inactive)
same,GI50,M14,1.44 µM (inactive)
same,GI50,SNB-78,13.8 µM (inactive)
same,GI50,NCI-H226,12.8 µM (inactive)
same,GI50,SN12C,3.95 µM (inactive)
same,GI50,OVCAR-5,11.5 µM (inactive)
same,GI50,786-0,2.41 µM (inactive)
same,GI50,XF498,3.4 µM (inactive)
same,GI50,DMS-273,2.67 µM (inactive)
same,GI50,TK-10,12.5 µM (inactive)
same,GI50,SF-539,14.6 µM (inactive)
same,GI50,EKVX,18.3 µM (inactive)
same,GI50,SK-MEL-5,4.48 µM (inactive)
same,GI50,SW-620,1.87 µM (inactive)
same,GI50,SNB-19,15.8 µM (inactive)
same,GI50,A549,16.3 µM (inactive)
same,GI50,HCT-15,2.49 µM
same,GI50,RXF 393,5.19 µM (inactive)
same,GI50,HT-29,4.59 µM (inactive)
same,GI50,RPMI-8226,1.91 µM (inactive)
same,GI50,K562,1.85 µM (inactive)
same,GI50,OVCAR-3,7.03 µM (inactive)
same,GI50,CAKI-1,6.41 µM (inactive)
same,GI50,HOP-92,2.64 µM (inactive)
same,GI50,UACC-62,3.44 µM (inactive)
same,GI50,UACC-257,5.96 µM (inactive)
same,GI50,A498,16.9 µM (inactive)
same,GI50,NCI-H460,17.5 µM (inactive)
same,GI50,UO-31,14.7 µM (inactive)
same,GI50,HCC 2998,18.5 µM (inactive)
same,GI50,SK-OV-3,18.6 µM (inactive)
same,GI50,MOLT-4,0.679 µM (active)
same,GI50,IGROV-1,14.2 µM (inactive)
same,GI50,ACHN,8.36 µM (inactive)
same,GI50,KM12,9.64 µM (inactive)
same,GI50,OVCAR-4,5.46 µM (inactive)
same,GI50,CCRF-CEM,0.457 µM (active)
same,GI50,SNB-75,6.11 µM (inactive)
same,GI50,KM-20L2,11.8 µM (inactive)
same,GI50,Malme-3M,4.68 µM (inactive)
same,GI50,SK-MEL-2,6.43 µM (inactive)
same,GI50,COLO 205,2.29 µM (inactive)
same,GI50,HOP-62,17.3 µM (inactive)
same,GI50,NCI-H23,2.85 µM (inactive)
same,GI50,LOX IMVI,1.78 µM (inactive)
same,GI50,HOP-18,7.48 µM (inactive)
COC(=O)C1C(=O)O[C@@H](c2ccc(OC)cc2OC)C1C(=O)OC (stereo partly drawn),GI50,HCT-116,> 100 µM (inactive)
same,GI50,SR,> 100 µM (inactive)
same,GI50,M19-MEL,> 100 µM (inactive)
same,GI50,SF-268,> 100 µM (inactive)
same,GI50,U-251,> 100 µM (inactive)
same,GI50,LXFL 529,> 100 µM (inactive)
same,GI50,DLD-1,> 100 µM (inactive)
same,GI50,HL-60,> 100 µM (inactive)
same,GI50,SK-MEL-28,> 100 µM (inactive)
same,GI50,SF-295,> 100 µM (inactive)
same,GI50,OVCAR-8,> 100 µM (inactive)
same,GI50,M14,> 100 µM (inactive)
same,GI50,SNB-78,> 100 µM (inactive)
same,GI50,NCI-H226,> 100 µM (inactive)
same,GI50,SN12C,> 100 µM (inactive)
same,GI50,OVCAR-5,> 100 µM (inactive)
same,GI50,786-0,> 100 µM (inactive)
same,GI50,XF498,> 100 µM (inactive)
same,GI50,DMS-273,> 100 µM (inactive)
same,GI50,TK-10,> 100 µM (inactive)
same,GI50,SF-539,> 100 µM (inactive)
same,GI50,EKVX,> 100 µM (inactive)
same,GI50,DMS-114,> 100 µM (inactive)
same,GI50,SK-MEL-5,> 100 µM (inactive)
same,GI50,SW-620,> 100 µM (inactive)
same,GI50,SNB-19,> 100 µM (inactive)
same,GI50,A549,> 100 µM (inactive)
same,GI50,HCT-15,> 100 µM
same,GI50,RXF 393,> 100 µM (inactive)
same,GI50,HT-29,> 100 µM (inactive)
same,GI50,RPMI-8226,> 100 µM (inactive)
same,GI50,K562,> 100 µM (inactive)
same,GI50,OVCAR-3,> 100 µM (inactive)
same,GI50,CAKI-1,> 100 µM (inactive)
same,GI50,HOP-92,> 100 µM (inactive)
same,GI50,UACC-62,> 100 µM (inactive)
same,GI50,UACC-257,> 100 µM (inactive)
same,GI50,A498,> 100 µM (inactive)
same,GI50,NCI-H460,> 100 µM (inactive)
same,GI50,UO-31,> 100 µM (inactive)
same,GI50,HCC 2998,> 100 µM (inactive)
same,GI50,SK-OV-3,> 100 µM (inactive)
same,GI50,MOLT-4,> 100 µM (inactive)
same,GI50,IGROV-1,> 100 µM (inactive)
same,GI50,ACHN,> 100 µM (inactive)
same,GI50,KM12,> 100 µM (inactive)
same,GI50,OVCAR-4,> 100 µM (inactive)
same,GI50,CCRF-CEM,> 100 µM (inactive)
same,GI50,SNB-75,> 100 µM (inactive)
same,GI50,KM-20L2,> 100 µM (inactive)
same,GI50,Malme-3M,> 100 µM (inactive)
same,GI50,COLO 205,> 100 µM (inactive)
same,GI50,HOP-62,> 100 µM (inactive)
same,GI50,NCI-H23,> 100 µM (inactive)
same,GI50,LOX IMVI,> 100 µM (inactive)
same,GI50,HOP-18,> 100 µM (inactive)
